Article PMC4884932, “Selective brain penetrable Nurr1 transactivator for treating Parkinson's disease” (Oncotarget, 2016)

Experiments:
LXRα = LXRα (Homo sapiens, UniProt Q13133); experiment: Receptor transactivation assay, LXRα (CV-1 cells); assay type: cell-based; conditions: at physiological concentrations
Description: For PPARγ: CV-1 cells were transfected with 3x(rAOX/DR1)-tk-Luc reporter gene and an expression vector for PPARγ; for FXR: CV-1 cells were transfected with 3x(IBABP/IR1)-tk-Luc reporter gene and vectors for FXR and RXRα; for LXR: CV-1 cells were transfected with 3x(PLTP/LXRE)-tk-Luc reporter gene with vectors for LXRα or LXRβ. […] Luciferase data were normalized to co-transfected β-gal activity. Luciferase activity is expressed as percent of maximal activity obtained using specific agonists 9-cis-retinoic acid (RXR), retinoic acid (RAR), rosiglitazone (PPARγ), GW4064 (FXR), T0901317 (LXR).

Nurr1 = target: T1, Nurr1 (Homo sapiens, UniProt P43354); experiment: Nurr1 transactivation assay in COS7 cells without RXRα; assay type: cell-based; conditions: Nurr1 in the absence of RXRα
T1 construct: full length Nurr1 with or without full-length RXRα plasmid; expressed in transfected cells; host or cells: COS7
Excerpt: For RXR: CV-1 cells were transfected with rCRBPII/RXRE-tk-Luc reporter gene and an expression vector for RXRα, β, or γ. For RAR: CV-1 cells were transfected with ERE-tk-Luc reporter gene and an expression vector for the appropriate ER-RARα, β, or γ. ER-RARs are fusion proteins, composed of the estrogen receptor (ER) DNA binding domain fused to the ligand binding domain of RARs. This system eliminates interference by the low level of endogenous RAR activity in CV1 cells as the readout comes only from the transfected ER-RAR. For PPARγ: CV-1 cells were transfected with 3x(rAOX/DR1)-tk-Luc reporter gene and an expression vector for PPARγ; for FXR: CV-1 cells were transfected with 3x(IBABP/IR1)-tk-Luc reporter gene and vectors for FXR and RXRα; for LXR: CV-1 cells were transfected with 3x(PLTP/LXRE)-tk-Luc reporter gene with vectors for LXRα or LXRβ. For Nurr1: COS7 cells were transfected with 3xNBRE-tk-luc reporter gene and full length Nurr1 with or without full-length RXRα plasmid. […] Luciferase data were normalized to co-transfected β-gal activity. Luciferase activity is expressed as percent of maximal activity obtained using specific agonists 9-cis-retinoic acid (RXR), retinoic acid (RAR), rosiglitazone (PPARγ), GW4064 (FXR), T0901317 (LXR).

[1] = test system: tyrosine hydroxylase (TH)-positive DA neurons; experiment: DA neuron survival in primary ventral midbrain (VMB) culture; assay type: cell-based, mouse; conditions: primary VMB neurons, dose-dependent
Description: Ventral midbrain (VMB) from E13.5-14.5 C57BL/6 mouse embryos were dissected, triturated and plated on poly-D-lysine coated 12 well plates or glass coverslips with the serum-free chemically-defined Neurobasal medium, supplemented with 2% B27, 0.5mM L-glutamine, 50I.U./ml penicillin and 50μg/ml streptomycin (Gibco-BRL). […] For each time point, cells were washed once with phosphate buffered saline and fixed with 4% paraformaldehyde for TH immunofluorescent staining. For cell counting, 10 frames were randomly captured from each well using a Leica fluorescent microscope and a minimum of four replicates for each dose and each time point were analyzed for each experiment.

[2] = test system: Nurr1 downstream genes in the SN; experiment: Expression of Nurr1 downstream genes in the substantia nigra after oral treatment; assay type: in vivo; conditions: rat, 7 days oral 10 mg/kg/day
Description: Male SD rats underwent daily gavage with 10mg/kg/day for seven days. One hour after the last dose, rats were anesthetized with ketamine/xylazine and transcardially perfused with cold saline. Brains were isolated and homogenized with two volumes of phosphate buffer using ultrasonication. A 100μl sample of the homogenate was transferred to a 1.7ml centrifuge tube and mixed with 20μl of internal standard (100ng/ml of 13-cis retinoic acid-d5 in diluent). Then the sample was deproteinized with 300μl of acetonitrile, centrifuged, and the supernatant was transferred to an autosampler vial for analysis by LC/MS/MS. The calibration standards and the internal standard (13-cis retinoic acid-d5) were diluted in acetonitrile:butylatedhydroxyanisole:ethoxyquin:triethylamine (100:0.05:0.02:0.1, v/w/v/v).
Total RNA from VMB neurons or rat substantia nigra were isolated using the RNeasy Mini Kit from Qiagen (Valencia, CA) and 1μg of total RNA was reverse transcribed using SuperScript III first-strand synthesis supermix for qRT-PCR from Invitrogen (Carlsbad, CA) according to the manufacturer's instruction. Quantitative RT-PCR was performed using Maxima SYBR Green master mix (Fermentas) in ABI Prism 7900HT in four replicates with primers amplifying the target genes. Expression level of actin was used as an internal control. Data were normalized using the 2^−ΔΔCt method. Levels of target gene mRNAs were expressed relative to those in vehicle control groups and plotted in GraphPad Prism.

6-OHDA lesioned rats = experiment: Cylinder test in 6-OHDA lesioned rat model of PD; assay type: in vivo; conditions: 10mg/kg/day gavage for three weeks, day 17 and day 24 post-lesion, p < 0.05
Description: All surgical procedures were performed under general anesthesia with ketamine/xylazine. 2μl 6-OHDA (20 mg/ml in 0.02% ascorbic acid) was stereotaxically injected into the right striatum of male SD rats. Lesion coordinates were set according to bregma and dura in mm: ML-3.7; AP-1.0; DV-5.5. The injection rate was 2μl/5 min and the injecting needle was left for 2 minutes after injection to avoid back flow. Apomorphine-induced rotations (see below) were assessed three days post-lesion and rats with ≥ 30 full contralateral rotation/30 minutes were included in the study.
Rats were randomly grouped into vehicle control group (n = 11) and drug treatment group (n = 10). […] The control group received DMSO/corn oil (vehicle). The treatment continued for three weeks.
The cylinder test was used to test for forelimb use asymmetry. Rats to be tested were placed individually in a glass cylinder (21 cm diameter, 34 cm height) and wall exploration was recorded for five minutes. Wall exploration was expressed in terms of the percentage of impaired (right) forelimb vs. total (right+left+both) usage. Paw placement test was performed before the lesion for baseline, three days post lesion and two weeks and three weeks following treatment.

T1 sequence (P43354 whole entry, species assumed): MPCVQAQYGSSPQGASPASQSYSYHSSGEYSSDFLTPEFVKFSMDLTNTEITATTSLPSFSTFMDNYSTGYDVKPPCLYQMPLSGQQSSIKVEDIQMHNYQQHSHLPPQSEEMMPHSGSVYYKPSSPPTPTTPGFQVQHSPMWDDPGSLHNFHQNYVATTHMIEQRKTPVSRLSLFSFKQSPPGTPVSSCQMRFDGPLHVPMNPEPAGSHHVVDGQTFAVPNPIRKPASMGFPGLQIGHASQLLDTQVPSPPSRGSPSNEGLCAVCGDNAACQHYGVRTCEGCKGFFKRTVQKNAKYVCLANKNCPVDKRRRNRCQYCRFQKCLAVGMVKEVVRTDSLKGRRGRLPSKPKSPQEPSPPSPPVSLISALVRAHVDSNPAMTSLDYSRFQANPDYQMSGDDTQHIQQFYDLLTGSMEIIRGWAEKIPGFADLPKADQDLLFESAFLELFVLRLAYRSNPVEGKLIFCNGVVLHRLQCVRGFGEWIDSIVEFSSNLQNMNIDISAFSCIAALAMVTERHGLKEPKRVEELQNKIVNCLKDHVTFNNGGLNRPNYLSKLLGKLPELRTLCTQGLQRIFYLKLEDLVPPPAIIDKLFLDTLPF
Sequence of LXRα (P19793 whole entry): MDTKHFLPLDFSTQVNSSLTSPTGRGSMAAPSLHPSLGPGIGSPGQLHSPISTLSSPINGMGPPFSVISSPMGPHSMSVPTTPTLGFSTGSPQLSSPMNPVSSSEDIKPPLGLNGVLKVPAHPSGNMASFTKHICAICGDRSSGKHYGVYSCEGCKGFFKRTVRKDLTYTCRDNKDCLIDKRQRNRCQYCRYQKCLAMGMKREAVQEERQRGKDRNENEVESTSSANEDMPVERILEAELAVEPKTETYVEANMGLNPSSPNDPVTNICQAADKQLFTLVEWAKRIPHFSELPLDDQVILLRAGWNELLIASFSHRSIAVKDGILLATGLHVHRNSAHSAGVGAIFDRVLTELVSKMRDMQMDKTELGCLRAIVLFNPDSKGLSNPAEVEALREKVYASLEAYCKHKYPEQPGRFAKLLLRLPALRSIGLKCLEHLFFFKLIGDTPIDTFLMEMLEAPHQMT
Sequence of LXRα (Q13133 whole entry): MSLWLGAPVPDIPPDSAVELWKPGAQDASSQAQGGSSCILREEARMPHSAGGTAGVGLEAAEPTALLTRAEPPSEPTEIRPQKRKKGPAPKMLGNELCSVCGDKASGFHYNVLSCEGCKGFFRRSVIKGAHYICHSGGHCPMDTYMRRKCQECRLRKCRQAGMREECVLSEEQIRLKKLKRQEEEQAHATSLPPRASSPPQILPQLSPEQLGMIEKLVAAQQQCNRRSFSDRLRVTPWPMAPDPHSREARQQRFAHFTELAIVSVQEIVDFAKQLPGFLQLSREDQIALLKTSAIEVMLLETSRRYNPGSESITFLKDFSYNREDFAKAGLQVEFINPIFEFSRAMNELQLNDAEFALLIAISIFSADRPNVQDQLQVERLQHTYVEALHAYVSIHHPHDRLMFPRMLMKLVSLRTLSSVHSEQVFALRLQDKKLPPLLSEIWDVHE

## CC(/C=C/[C@@H]1C[C@]1(C)c1ccc2c(c1)C(C)(C)CCC2(C)C)=C\C(=O)O [IRX4204]
LXRα
  activation of RXR heterodimer of LXRα: does not activate
Nurr1
  reporter gene activation: base level of reporter gene activation
[1]
  survival of TH-positive DA neurons: increased survival
[2]
  DAT mRNA level in the SN: significantly increased
  DDC mRNA level in the SN: significantly increased
  DJ-1(PARK7) mRNA level in the SN: significantly increased
  GRFα1 mRNA level in the SN: significantly increased
  Pitx3 mRNA level in the SN: significantly increased
  TH mRNA level in the SN: significantly increased
[2]; did not reach statistical significance
  VMAT-2 (VMAT2) mRNA expression in the SN: trend towards an increase
6-OHDA lesioned rats
  spontaneous forelimb use in the cylinder test: significantly improved spontaneous forelimb use to pre-lesion levels
